Measured values: patent US6448251B1, “Zwitterionic-fatty acid compounds having anti-inflammatory properties” (priority 1997, dated 2002)
Where two headings read alike, the source gives them in different places.

Legend:
[1] = test system: erythema induced by the capsaicin; experiment: Protocol II dermal irritation: capsaicin-induced erythema on human forearm, infra-red reflection; format: in vivo; conditions: 0.1% capsaicin on forearm of human volunteer; candidate applied when erythema appeared 10-15 minutes later; optical reflection at 818 nanometers measured 30 minutes later; baseline control 3.5, capsaicin only 0.5
Description: A new screening method was developed to make rapid assessments on the anti-inflammatory action of the new candidates. The procedure involved the use of a natural irritant, capsaicin*, which candidate is derived from crushed hot peppers (capsicum), and measuring the amount of erythema reduction by the test candidates. Inflammatory reaction are characterzed by pain and tenderness associated with swelling and redness. Most of these clinical signs are attributed to the large influx of blood into the area. Vaso-constricting agents can reduce the amount of swelling and erythema. Hydrocortisone is, in fact, assayed by its ability to blanch the skin, which is a vasoconstrictive effect. Applying a solution of 0.1% of capsaicin to the forearm of a human volunteer will produce an erythema in less than 20 minutes, usually under five minutes. The degree of erythema is measured with an infra-red detector. An infra-red beam of light at 818 nanometers is directed into the skin over the test sie and the amount of infra-red returned to the surface by reflection indicates the amount absorbed in the skin. An untreated skin area is used as a baseline control, a capsaicin treated area is used as the negative control, and a capsaicin+hydrocortisone (a known vasoconstrictor) serves as the positive control. A positive effect means the erythema induced by the capsaicin is reduced, or is eliminated, as measured by the infra-red detector. The following reults were obtained with this evaluative protocol. The capsaicin was applied to the skin, and when erythema appeared 10-15 minutes later, the test candidate agent was applied, and the optical reflection measurements were made 30 minutes later.

inflammation = conditions: cited from earlier work
[2] = intravenous injection, radiolabelled; cited from earlier work

Compound | Millivolts (reflection voltage) [1] [Millivolts] | clearance [2] | also measured
CCCCCC=CCC=CCCCCCCCC(=O)OCCN1CCN(CCS(=O)(=O)O)CC1 [Compound V, Hepes-Linoleate Ester] | 3.8 | – | –
CC(=O)OCCN1CCN(CCS(=O)(=O)[O-])CC1.[Na+] [Compound VI, Hepes-Acetate Ester] | 3.0 | – | –
C[C@]12CCC(=O)C=C1CC[C@@H]1[C@@H]2[C@@H](O)C[C@@]2(C)[C@H]1CC[C@]2(O)C(=O)CO [Hydrocortisone] | 5.0 | – | –
O=S(=O)(O)CCN1CCN(CCO)CC1 [HEPES, 4-(2-Hydroxyethyl)-1-piperazine-ethanesulfonic acid] | – | rapid clearance | anti-inflammatory effects compared with taurine (inflammation; HEPES sodium salt and the acid, Mahon et al): greater anti-inflammatory effects; half-life compared with taurine [2]: significantly longer half-life
HEPES oleate, sodium salt [Compound I] | 3.7 | – | –
NCCS(=O)(=O)O [taurine, 2-amino ethanesulfonic acid] | – | rapid clearance | anti-inflammatory activity (inflammation; administered centrally): demonstrated anti-inflammatory activity; anti-inflammatory activity (inflammation; administered subcutaneously or interperitoneally): not
